{
  "source": "patent US20240374879A1",
  "about": "“METHODS AND COMPOSITIONS TO REDUCE CELLULAR DEPOSITION, AND HYDROCEPHALUS SHUNT FAILURE” (Wayne State University, priority 2021, published 2024)",
  "key": {"TLR-4": {"molecular_target": "T1, TLR-4 (Mus musculus, UniProt Q9QUK6)", "T1 sequence (Q9QUK6 26-835)": "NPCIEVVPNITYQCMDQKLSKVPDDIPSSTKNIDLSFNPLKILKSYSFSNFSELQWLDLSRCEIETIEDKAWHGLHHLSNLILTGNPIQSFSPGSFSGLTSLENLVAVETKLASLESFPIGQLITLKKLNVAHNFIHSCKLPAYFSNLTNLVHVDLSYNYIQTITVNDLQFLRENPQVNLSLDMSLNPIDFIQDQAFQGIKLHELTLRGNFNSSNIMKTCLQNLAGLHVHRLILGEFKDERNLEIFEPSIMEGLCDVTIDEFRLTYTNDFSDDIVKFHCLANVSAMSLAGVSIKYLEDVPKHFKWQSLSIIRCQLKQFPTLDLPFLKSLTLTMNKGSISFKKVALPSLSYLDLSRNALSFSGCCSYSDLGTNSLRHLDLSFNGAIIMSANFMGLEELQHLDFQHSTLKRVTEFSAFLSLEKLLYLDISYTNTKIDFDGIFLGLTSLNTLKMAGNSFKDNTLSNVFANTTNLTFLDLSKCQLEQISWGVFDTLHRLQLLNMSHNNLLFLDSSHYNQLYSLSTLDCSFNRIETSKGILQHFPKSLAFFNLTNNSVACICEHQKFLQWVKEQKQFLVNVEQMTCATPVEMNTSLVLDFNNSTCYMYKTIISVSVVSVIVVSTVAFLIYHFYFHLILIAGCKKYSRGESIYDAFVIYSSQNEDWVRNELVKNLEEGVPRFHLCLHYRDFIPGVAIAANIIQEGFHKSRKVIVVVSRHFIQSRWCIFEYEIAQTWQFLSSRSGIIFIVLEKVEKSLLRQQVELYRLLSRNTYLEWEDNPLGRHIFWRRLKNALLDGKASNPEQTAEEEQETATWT", "conditions": "50 mg/kg; four hours post-treatment; cited from earlier work"}, "Human astrocyte cells": {"test_system": "Human astrocyte cells", "assay": "Cell counts of human astrocytes cultured on PDMS discs, GIT 27 as pre-, simultaneous or post-treatment", "format": "cell-based", "conditions": "for number of cells compared to associated control: vs control; for % Change of average Cell Counts, GIT 27 vs DMSO treated vehicle: GIT 27 1000 μg/mL", "protocol": "PDMS Catheter Creation: Catheter samples were made by creating a polydimethylsiloxane (PDMS, silicone) solution, Sylgard 184 (Dow Corning), at a ratio of 10:1 elastomer to curing agent. This solution was then homogenized and placed into a degasser to remove bubbles. Once all the air bubbles were removed, 200 μL of the PDMS solution was pipetted into a 24 well plate to create flat disk samples for cell culturing. These samples were then degassed again to ensure were no bubbles in the disks and left for 48 hours to cure on a flat substrate.\nMedia Creation: A media stock solution was created by combining astrocyte media (ScienCell), supplement kit, 10 mL fetal bovine serum (FBS), 5 mL penicillin/streptomycin, and 5 mL astrocyte growth serum (ScienCell), and an additional 10 mL FBS (ScienCell). IL-1β and IL-10 were diluted to a concentration of 50,000 ng/mL and 100,000 ng/mL, respectively, in phosphate buffer solution (PBS, w/v). GIT 27 was dissolved in a dimethyl sulfoxide (DMSO) vehicle (Sigma-Aldrich) to a concentration of 20 mg/mL (w/v).\nMedia solutions for the different groups were made directly before each media change. Cytokines IL-1β or IL-10 were added to the media stock solution for a final concentration of 14.67 ng/mL. GIT 27 was added for a concentration of 1000 μg/mL in the media stock solution for our experimental group. […] Our vehicle group contained 50 μL/mL DMSO alone, which is proportional to the amount in the GIT 27 treated group. Concentrations were then made for evaluation of dose and time dependency (FIGS. 6A-6F).\nCell Culture: Human astrocyte cells were initially grown in T75 flasks with media changes every three days using basic astrocyte media and washed with Hanks Balanced Salt Solution without Calcium and Magnesium (Gibco). Once the flasks came to confluency, the cells were trypsinized using Trypsin-EDTA at 0.25% (Gibco) and seeded at a seeding density of 250,000 cells per well. These samples were broken up into three treatment groups: control, DMSO, and GIT 27 tested as a pre-treatment, simultaneous treatment, and post-treatment (FIGS. 6A-6F). Each group and treatment time were then either exposed to IL-1β or IL-10 separately at concentrations described for media creation.\nCell Count Collection: Images were taking using a microscope (Fisher Scientific) and microscope attachable digital camera following each media change on days 1, 5, 7, 9, 12, and 14. These images were taken at approximately the center of each 24 well plate well with an area of 5.9788 mm^2. Counts were obtained using the FIJI software by converting the images to 32-bit. Contrast was enhanced to the value of 0.5 and background was subtracted to a value of 10. Finally, the threshold was set to 23-70 to obtain the cell count of each image.\nStatistical Analysis: Three conditions were tested in this experiment, treatment group, treatment time, and IL B or IL10 exposure, with a total of 16 different samples tested with an n=five of replicates. The three treatment groups tested were a control, vehicle control (DMSO), and GIT 27 (G27). Each treatment group was tested as a pre-treatment (denoted Pre-), dose simultaneous to treatment (denoted Sim-), and post-treatment (denoted Post-) as time points with respect to shunt insertion represented by exposure to either IL-1β (IL1B) or IL-10 (IL10). Utilizing the abbreviations described here we combined these to allow for an easier understand of the results presented. An example of this can be control Pre-IL1B, DMSO Pre-IL1B, and G27 Pre-IL1B which represents the three treatment groups when used as a pre-treatment to IL-1β exposure."}},
  "data": [
    {"smiles": "O=C(O)CC1CC(c2ccccc2)=NO1", "note": "(centres unmarked) [GIT 27, 4,5-Dihydro-3-phenyl-5-isoxazoleacetic acid]", "values": [
      {"measurement": "edema", "setting": "TLR-4", "result": "significantly reduced"},
      {"measurement": "cell count by treatment time", "setting": "Human astrocyte cells; G27 Pre-IL1B compared to G27 Post-IL1B", "result": "significantly fewer"},
      {"measurement": "cell count by treatment time", "setting": "Human astrocyte cells; G27 Pre-IL1B compared to Sim-IL1B", "result": "insignificantly less"},
      {"measurement": "cell count by treatment time", "setting": "Human astrocyte cells; G27 Pre-IL10 compared to G27 Post-IL10", "result": "significantly fewer"},
      {"measurement": "cell count by treatment time", "setting": "Human astrocyte cells; G27 Sim-IL10 compared to G27 Post-IL10", "result": "significantly lower"},
      {"measurement": "number of cells compared to associated control", "setting": "Human astrocyte cells; Post-IL1B", "result": "not significantly different"},
      {"measurement": "cell count, difference between the three treatment groups", "setting": "Human astrocyte cells; Post-IL10", "result": "no effect"},
      {"measurement": "% Change of average Cell Counts, GIT 27 vs DMSO treated vehicle", "setting": "Human astrocyte cells; Post-Treatment (C), exposed to IL-1β", "result": 94.25, "unit": "%"},
      {"measurement": "% Change of average Cell Counts, GIT 27 vs DMSO treated vehicle", "setting": "Human astrocyte cells; Post-Treatment (C), exposed to IL-10", "result": "−9.74", "unit": "%"},
      {"measurement": "cell count compared to DMSO", "setting": "Human astrocyte cells; Pre-IL1B, vs DMSO Pre-IL1B", "result": "insignificantly lower"},
      {"measurement": "cell count compared to control", "setting": "Human astrocyte cells; Pre-IL1B, vs control Pre-IL1B", "result": "significantly lower"},
      {"measurement": "% Change of average Cell Counts, GIT 27 vs DMSO treated vehicle", "setting": "Human astrocyte cells; Pre-Treatment (A), exposed to IL-1β", "result": "−15.09", "unit": "%"},
      {"measurement": "% Change of average Cell Counts, GIT 27 vs DMSO treated vehicle", "setting": "Human astrocyte cells; Pre-Treatment (A), exposed to IL-10", "result": 22.97, "unit": "%"},
      {"measurement": "number of cells compared to associated control", "setting": "Human astrocyte cells; Sim-IL1B", "result": "not significantly different"},
      {"measurement": "cell count, difference between the three treatment groups", "setting": "Human astrocyte cells; Sim-IL10", "result": "no effect"},
      {"measurement": "% Change of average Cell Counts, GIT 27 vs DMSO treated vehicle", "setting": "Human astrocyte cells; Simultaneous Treatment (B), exposed to IL-1β", "result": 50.87, "unit": "%"},
      {"measurement": "% Change of average Cell Counts, GIT 27 vs DMSO treated vehicle", "setting": "Human astrocyte cells; Simultaneous Treatment (B), exposed to IL-10", "result": "−5.50", "unit": "%"}
    ]}
  ]
}
